ChEMBL document CHEMBL5724914, “Linking interpersonal differences in gut microbiota composition and drug biotransformation activity” (2024)

Experiments:
[1] = (§1) The drug is tested on Z-029 corresponding to rat gut metagenome with ENA study accession number: PRJEB37062 and ENA sample accession number: ERS12561828 for biotransformation under anaerobic condition. The drug concentrations were measured over 9 timepoints collected between 0 and 24 hours of incubation by liquid-chromatography-coupled mass spectrometry (LC–MS); conditions: 2 µM
[2] = human gut metagenome, 24 h, 2 µM
[3] = human gut metagenome, 24 h, 2 µM; remark: listed apart in the source
[4] = human gut metagenome, 24 h, 2 µM; remark: listed apart in the source
[5] = as §1, with “Z-019” for “Z-029”, “ERS12561818” for “ERS12561828”; conditions: 2 µM
[6] = as §1, with “Z-012” for “Z-029”, “to” for “to rat gut”, “ERS12561812” for “ERS12561828”; conditions: 2 µM
[7] = human gut metagenome, 24 h, 2 µM; remark: listed apart in the source
[8] = human gut metagenome, 24 h, 2 µM; remark: listed apart in the source
[9] = human gut metagenome, 24 h, 2 µM; remark: listed apart in the source
[10] = human gut metagenome, 24 h, 2 µM; remark: listed apart in the source
[11] = human gut metagenome, 24 h, 2 µM; remark: listed apart in the source
[12] = human gut metagenome, 24 h, 2 µM; remark: listed apart in the source
[13] = as §1, with “on WLS-069” for “on Z-029”, “to human” for “to rat”, “number: ERS12561748” for “number: ERS12561828”; conditions: 2 µM
[14] = human gut metagenome, 24 h, 2 µM; remark: listed apart in the source
[15] = as §1, with “on WLS-310” for “on Z-029”, “to human” for “to rat”, “number: ERS12561785” for “number: ERS12561828”; conditions: 2 µM
[16] = human gut metagenome, 24 h, 2 µM; remark: listed apart in the source
[17] = as §1, with “on WLS-090” for “on Z-029”, “to human” for “to rat”, “number: ERS12561753” for “number: ERS12561828”; conditions: 2 µM
[18] = human gut metagenome, 24 h, 2 µM; remark: listed apart in the source
[19] = as §1, with “on WLS-039” for “on Z-029”, “to human” for “to rat”, “number: ERS12561746” for “number: ERS12561828”; conditions: 2 µM
[20] = as §1, with “on Z-030” for “on Z-029”, “to mouse” for “to rat”, “number: ERS12561829” for “number: ERS12561828”; conditions: 2 µM
Also: call rule not given here.

Structure (SMILES)	Bacterial Biotransformation [1]	Bacterial Biotransformation [2]	Bacterial Biotransformation [3]	Bacterial Biotransformation [4]	Bacterial Biotransformation [5]	Bacterial Biotransformation [6]	Bacterial Biotransformation [7]	Bacterial Biotransformation [8]	Bacterial Biotransformation [9]	Bacterial Biotransformation [10]	Bacterial Biotransformation [11]	Bacterial Biotransformation [12]	Bacterial Biotransformation [13]	Bacterial Biotransformation [14]	Bacterial Biotransformation [15]	Bacterial Biotransformation [16]	Bacterial Biotransformation [17]	Bacterial Biotransformation [18]	Bacterial Biotransformation [19]	Bacterial Biotransformation [20]
O=C1CN2Cc3c(ccc(Cl)c3Cl)N=C2N1 [ANAGRELIDE]	Compound NOT metabolized	Compound metabolized	Compound metabolized	Compound NOT metabolized	Compound NOT metabolized	Compound NOT metabolized	Compound metabolized	Compound NOT metabolized	Compound NOT metabolized	Compound metabolized	Compound NOT metabolized	Compound metabolized	Compound metabolized	Compound metabolized	Compound metabolized	Compound NOT metabolized	Compound metabolized	Compound NOT metabolized	Compound NOT metabolized	Compound NOT metabolized
CN(C)C(=O)Oc1cc(OC(=O)N(C)C)cc(C(O)CNC(C)(C)C)c1 (stereo not given) [BAMBUTEROL]	Compound NOT metabolized	Compound metabolized	Compound NOT metabolized	Compound NOT metabolized	Compound NOT metabolized	Compound NOT metabolized	Compound metabolized	Compound NOT metabolized	Compound metabolized	Compound metabolized	Compound NOT metabolized	Compound metabolized	Compound NOT metabolized	Compound NOT metabolized	Compound metabolized	Compound metabolized	Compound metabolized	Compound NOT metabolized	Compound NOT metabolized	Compound NOT metabolized
CCc1oc2ccccc2c1C(=O)c1cc(Br)c(O)c(Br)c1 [BENZBROMARONE]	Compound NOT metabolized	Compound NOT metabolized	Compound metabolized	Compound metabolized	Compound NOT metabolized	Compound NOT metabolized	Compound metabolized	Compound NOT metabolized	Compound NOT metabolized	Compound NOT metabolized	Compound NOT metabolized	Compound metabolized	Compound metabolized	Compound metabolized	Compound metabolized	Compound metabolized	Compound metabolized	Compound NOT metabolized	Compound metabolized	Compound NOT metabolized
CC(NC(C)(C)C)C(=O)c1cccc(Cl)c1 (stereo not given) [BUPROPION]	Compound NOT metabolized	Compound NOT metabolized	Compound NOT metabolized	Compound NOT metabolized	Compound NOT metabolized	Compound NOT metabolized	Compound metabolized	Compound NOT metabolized	Compound NOT metabolized	Compound NOT metabolized	Compound NOT metabolized	Compound NOT metabolized	Compound NOT metabolized	Compound metabolized	Compound NOT metabolized	Compound NOT metabolized	Compound NOT metabolized	Compound NOT metabolized	Compound NOT metabolized	Compound NOT metabolized
O=C1CC2(CCCC2)CC(=O)N1CCCCN1CCN(c2ncccn2)CC1 [BUSPIRONE]	Compound NOT metabolized	Compound metabolized	Compound metabolized	Compound NOT metabolized	Compound NOT metabolized	Compound NOT metabolized	Compound metabolized	Compound metabolized	Compound NOT metabolized	Compound NOT metabolized	Compound NOT metabolized	Compound metabolized	Compound metabolized	Compound metabolized	Compound metabolized	Compound NOT metabolized	Compound metabolized	Compound NOT metabolized	Compound NOT metabolized	Compound NOT metabolized
CCCC(C)(COC(N)=O)COC(=O)NC(C)C (stereo not given) [CARISOPRODOL]	Compound NOT metabolized	Compound metabolized	Compound metabolized	Compound metabolized	Compound NOT metabolized	Compound metabolized	Compound metabolized	Compound metabolized	Compound NOT metabolized	Compound metabolized	Compound metabolized	Compound metabolized	Compound metabolized	Compound metabolized	Compound NOT metabolized	Compound metabolized	Compound metabolized	Compound NOT metabolized	Compound metabolized	Compound NOT metabolized
COc1ccccc1OCCNCC(O)COc1cccc2[nH]c3ccccc3c12 (stereo not given) [CARVEDILOL]	Compound NOT metabolized	Compound NOT metabolized	Compound NOT metabolized	Compound NOT metabolized	Compound NOT metabolized	Compound NOT metabolized	Compound metabolized	Compound NOT metabolized	Compound NOT metabolized	Compound metabolized	Compound NOT metabolized	Compound metabolized	Compound metabolized	Compound metabolized	Compound metabolized	Compound metabolized	Compound metabolized	Compound metabolized	Compound metabolized	Compound NOT metabolized
CC(C)(C)NCC(O)c1cc(Cl)c(N)c(Cl)c1 (stereo not given) [CLENBUTEROL]	Compound NOT metabolized	Compound NOT metabolized	Compound NOT metabolized	Compound NOT metabolized	Compound NOT metabolized	Compound NOT metabolized	Compound NOT metabolized	Compound NOT metabolized	Compound NOT metabolized	Compound NOT metabolized	Compound NOT metabolized	Compound NOT metabolized	Compound NOT metabolized	Compound NOT metabolized	Compound NOT metabolized	Compound NOT metabolized	Compound NOT metabolized	Compound NOT metabolized	Compound NOT metabolized	Compound NOT metabolized
C[N+]12CCC(CC1)C(OC(=O)C(O)(c1ccccc1)c1ccccc1)C2.[Br-] (stereo not given) [CLIDINIUM BROMIDE]	Compound NOT metabolized	Compound metabolized	Compound metabolized	Compound NOT metabolized	Compound NOT metabolized	Compound NOT metabolized	Compound metabolized	Compound NOT metabolized	Compound NOT metabolized	Compound NOT metabolized	Compound NOT metabolized	Compound metabolized	Compound NOT metabolized	Compound metabolized	Compound NOT metabolized	Compound NOT metabolized	Compound metabolized	Compound NOT metabolized	Compound metabolized	Compound NOT metabolized
